According to US7897781B2, “Cold menthol receptor-1 antagonists” (Janssen Pharmaceutica NV, priority 2006, dated 2011):
Values joined by “and” are separate entries in the source; they are usually repeats but may differ in a detail not shown here. Equal entries are not always repeated.

target: T1, canine TRPM8 (Canis lupus familiaris, UniProt Q1A7N1); assay: In vitro canine TRPM8 functional assay (Ca2+-sensitive dye, icilin activation; Table 4 TRPM8 Screening); format: cell-based; settings: compound at 0.5 μM; HEK293 cells expressing canine TRPM8, icilin activation
T1 construct: expressed in transfected cells
Experimental: The functional activity of compounds of Formula (I) was determined by measuring changes in intracellular calcium concentration using a Ca^2+-sensitive fluorescent dye. The changes in fluorescent signal were monitored by a fluorescence plate reader, either a FLIPR™ (Molecular Devices) or FDSS (Hamamatsu).
HEK293 cells stably expressing canine TRPM8 were routinely grown as monolayers in Dulbecco's minimum essential medium supplemented with 10% FBS, 1 mM L-glutamine, 100 units/mL penicillin, 100 ug/mL streptomycin and 400 μg/mL G418. Cells were maintained in 5% CO2 at 37° C. At 24 hrs prior to assay, cells were seeded in clear-base poly-D-lysine coated 384-well plates (BD Biosciences, NJ, USA) at a density of 5,000 cells per well in culture medium and grown overnight in 5% CO2 at 37° C. On assay day, growth media was removed and cells were loaded with Calcium 3 Dye (Molecular Devices) for 35 min at 37° C., under 5% CO2 and then for 25 min at room temperature and atmosphere. Subsequently, cells were tested for agonist-induced increases in intracellular Ca^2+ levels using FLIPR™ or FDSS. Cells were challenged with a compound of Formula (I) (at varying concentrations) and intracellular Ca^2+ was measured for 5 min prior to the addition of icilin to all wells to achieve a final concentration which produces approximately an 80% maximal response.
Basal FI was subtracted prior to normalizing data to percent of maximal response. Curves were generated using the average of quadruplicate wells for each data point, were analyzed using nonlinear regression of either sigmoidal dose response or sigmoidal dose response (variable slope). Finally, the EC50 and IC50 values were calculated with the best-fit dose curve determined by GraphPad Prism.

T1 sequence (Q1A7N1 1-1104): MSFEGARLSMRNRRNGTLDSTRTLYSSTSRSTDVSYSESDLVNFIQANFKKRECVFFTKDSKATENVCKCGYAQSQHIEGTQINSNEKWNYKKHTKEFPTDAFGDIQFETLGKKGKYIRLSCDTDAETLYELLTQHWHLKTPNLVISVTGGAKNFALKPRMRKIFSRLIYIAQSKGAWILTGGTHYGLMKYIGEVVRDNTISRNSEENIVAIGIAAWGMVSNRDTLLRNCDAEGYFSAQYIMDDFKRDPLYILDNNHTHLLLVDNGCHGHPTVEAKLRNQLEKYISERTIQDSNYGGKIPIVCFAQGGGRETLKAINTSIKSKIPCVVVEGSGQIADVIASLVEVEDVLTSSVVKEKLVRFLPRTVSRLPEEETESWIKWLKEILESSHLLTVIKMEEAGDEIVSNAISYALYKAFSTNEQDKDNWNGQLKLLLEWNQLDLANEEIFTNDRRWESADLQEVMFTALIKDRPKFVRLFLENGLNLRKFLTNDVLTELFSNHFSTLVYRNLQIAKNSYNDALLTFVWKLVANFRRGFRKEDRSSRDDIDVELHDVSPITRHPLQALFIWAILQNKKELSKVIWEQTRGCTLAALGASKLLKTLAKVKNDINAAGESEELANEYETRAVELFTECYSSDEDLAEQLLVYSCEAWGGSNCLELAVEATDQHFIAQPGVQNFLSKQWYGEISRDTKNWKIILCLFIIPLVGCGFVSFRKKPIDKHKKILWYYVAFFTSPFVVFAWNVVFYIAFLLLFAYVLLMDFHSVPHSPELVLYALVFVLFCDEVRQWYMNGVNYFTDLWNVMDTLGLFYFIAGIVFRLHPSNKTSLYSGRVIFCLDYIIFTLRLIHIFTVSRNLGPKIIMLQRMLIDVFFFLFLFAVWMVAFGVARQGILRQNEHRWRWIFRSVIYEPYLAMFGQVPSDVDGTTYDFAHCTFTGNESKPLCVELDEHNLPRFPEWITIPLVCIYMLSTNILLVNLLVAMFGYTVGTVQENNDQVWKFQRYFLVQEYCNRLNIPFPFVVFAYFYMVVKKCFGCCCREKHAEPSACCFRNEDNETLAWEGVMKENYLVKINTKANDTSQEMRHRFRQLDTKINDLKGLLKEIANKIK

SMILES	% I (0.5 μM)
CC(C)CCOP(=O)(OCCC(C)C)C(Cc1ccc(F)c(F)c1)c1sc2ccccc2c1Br (racemic) [Cpd 211]	97%
CCOP(=O)(OCC)C(Cc1cccc(OC(F)(F)F)c1)c1sc2ccccc2c1Br (racemic) [Cpd 145]	103, %
CC(C)OP(=O)(OC(C)C)C(Cc1c(F)c(F)c(O)c(F)c1F)c1sc2ccccc2c1Br (racemic) [Cpd 229]	95%
CCOP(=O)(OCC)C(Cc1cc(OC)c(Cl)cc1F)c1sc2ccccc2c1Br (racemic) [Cpd 164]	94%
CCOP(=O)(OCC)C(Cc1ccc(OC(F)(F)F)cc1)c1sc2ccccc2c1Br (stereo not drawn) [Cpd 155, [1-(3-Bromo-benzo[b]thiophen-2-yl)-2-(4-trifluoromethoxyphenyl)-ethyl]-phosphonic acid diethyl ester]	101% and 102%
CCOP(=O)(OCC)C(Cc1c(F)c(F)c(O)c(F)c1F)c1sc2ccccc2c1Br (racemic) [Cpd 228]	94%
CC(C)OP(=O)(OC(C)C)C(Cc1cccc(O)c1F)c1sc2ccccc2c1Br (racemic) [Cpd 230]	97%
CCOP(=O)(OCC)C(Cc1ccc(F)c(F)c1)c1sc2ccccc2c1-c1ccccc1F (racemic) [Cpd 216]	100%
COc1cc(CC(c2sc3ccccc3c2Br)P(=O)(OC(C)C)OC(C)C)ccc1F (stereo not drawn) [Cpd 157]	98%
CC(C)OP(=O)(OC(C)C)[C@H](Cc1ccc(F)c(F)c1)c1sc2ccccc2c1Br [Cpd 235, (R)-[1-(3-Bromo-benzo[b]thiophen-2-yl)-2-(3,4-difluoro-phenyl)-ethyl]-phosphonic acid diisopropyl ester]	93%
CCOP(=O)(OCC)C(Cc1ccc(F)c(F)c1)c1sc2ccccc2c1-c1cccc(C(=O)OC)c1 (stereo not drawn) [Cpd 219]	68%

same assay, conditions: compound at 1 μM; HEK293 cells expressing canine TRPM8, icilin activation

SMILES	% I (1 μM)
CCOP(=O)(OCC)C(Cc1ccccc1C(F)(F)F)c1cc2ccccc2s1 (stereo not drawn) [Cpd 102]	86%
CCOP(=O)(OCC)C(Cc1ccc(F)c(F)c1)C1=C(C)c2ccccc2S1(=O)=O (stereo not drawn) [Cpd 88, [2-(3,4-Difluoro-phenyl)-1-(3-methyl-1,1-dioxo-1H-1λ^6-benzo-[b]thiophen-2-yl)-ethyl]-phosphonic acid diethyl ester]	89%
CCOP(=O)(OCC)C(Cc1cc(C(F)(F)F)cc(Cl)c1F)c1sc2ccccc2c1C (stereo not drawn) [Cpd 73]	100%
CCOP(=O)(Cc1cc2ccccc2s1)OCc1ccccc1 (stereo not drawn) [Cpd 111]	14%
CCOP(=O)(OCC)C(Cc1ccccc1C(F)(F)F)c1sc2ccccc2c1C (stereo not drawn) [Cpd 59]	99%
CCOP(=O)(OCC)C(Cc1ccc(C(F)(F)F)c(F)c1)c1cc2ccccc2s1 (stereo not drawn) [Cpd 58]	100%
Cc1c(C(Cc2ccc(F)c(F)c2)P(=O)(OC(C)C)OC(C)C)sc2ncccc12 (stereo not drawn) [Cpd 34, [2-(3,4-Difluoro-phenyl)-1-(3-methyl-thieno[2,3-b]pyridin-2-yl)-ethyl]-phosphonic acid diisopropyl ester]	101, 101%
CCOP(=O)(OCC)C(Cc1c(Cl)cccc1Cl)c1sc2ccccc2c1C (stereo not drawn) [Cpd 54]	100%
CCC(C)P(=O)(C(C)CC)C(Cc1ccc(F)c(F)c1)c1sc2ccccc2c1Br (stereo not drawn) [Cpd 203]	96%
CCOP(=O)(OCC)C(Cc1ccc(F)c(F)c1)c1cc2ccccc2o1 (stereo not drawn) [Cpd 265]	95%
CCOP(=O)(OCC)C(Cc1cc(C(F)(F)F)ccc1C(F)(F)F)c1sc2ccccc2c1C (stereo not drawn) [Cpd 113]	25%
CCOP(=O)(OCC)C(Cc1c(Cl)cccc1Cl)c1cc2ccccc2s1 (stereo not drawn) [Cpd 95]	89%
Cc1c(C(Cc2ccc(F)c(F)c2)P(=O)(OC(C)C)OC(C)C)oc2ccccc12 (stereo not drawn) [Cpd 11]	99%
CC(C)OP(=O)(OC(C)C)C(Cc1ccc(F)cc1)c1sc2cc(Br)ccc2c1Br (stereo not drawn) [Cpd 200]	81%
CCOP(=O)(OCC)C(Cc1cc2c(cc1Cl)OCO2)c1sc2ccccc2c1C (stereo not drawn) [Cpd 71]	98%

same assay, conditions: compound at 5 μM; HEK293 cells expressing canine TRPM8, icilin activation

SMILES	% I (5 μM) [%]
CCOP(=O)(OCC)C(Cc1c(Cl)cccc1Cl)c1cc2ccccc2s1 (stereo not drawn) [Cpd 95]	100
